Measurements reported in patent publication US7964624B1, “Inhibitors of serine proteases” (priority 2005, dated 2011).

Legend:
HCV NS3 protease domain = biological target: T1, HCV NS3 protease domain (Hepatitis C virus genotype 1b, UniProt Q9WMX2); test: biochemical; conditions: Enzyme Assay 1 (HCV NS3 Protease Domain Peptide Cleavage Assay) activity, apparent Ki class
T1 construct: The first 181 amino acids of NS3 (residues 1027-1207 of the viral polyprotein); hexa-histidine (C); made in house; host or cells: E. coli BL21/DE3 pLysS

[1] = biological target: T2, full-length hepatitis C viral protein NS3•4A (Hepatitis C virus genotype 1a, UniProt P27958); test: biochemical; set-up: species or system HCV sub-type strain 1a; conditions: Enzyme Assay 2 (HCV NS3 Peptide Cleavage Assay) activity, apparent Ki class
T2 construct: hexa-histidine (N); made in house; host or cells: Sf9 insect cells (baculovirus, pVL1392)

Row | Structure (SMILES) | Ki (HCV NS3 protease domain) [nM] | Ki [1] [nM]
1 | CCC[C@H](NC(=O)[C@@H]1C[C@]2(CC(c3csc(Cl)c3)=NO2)CN1C(=O)[C@@H](NC(=O)CC1CCCCC1)C(C)(C)C)C(=O)C(=O)NC1CC1 [Compound 62] | 100 to 500 | 100 to 500
2 | CN(C)C(=O)C(=O)[C@H](CC1CCC1)NC(=O)[C@@H]1C[C@]2(CC(c3cccc(Cl)c3)=NO2)CN1C(=O)[C@@H](NC(=O)CC1CCCCC1)C(C)(C)C [Compound 63] | > 500 | > 500
3 | CCC[C@H](NC(=O)[C@@H]1C[C@]2(CC(c3cccc(Cl)c3)=NO2)CN1C(=O)C1CCN(c2ccccc2)C1=O)C(=O)C(=O)NC1CC1 (stereo partly shown) [Compound 65] | > 500 | > 500
4 | CCOc1c(F)cc(C2=NO[C@]3(C2)C[C@@H](C(=O)N[C@@H](CC2CC2)C(=O)C(N)=O)N(C(=O)[C@@H](NC(=O)CC2CCOCC2)C(C)(C)C)C3)cc1Cl [Compound 67] | < 100 | < 100
5 | CCC[C@H](NC(=O)[C@@H]1C[C@]2(CC(c3cccc(Cl)c3)=NO2)CN1C(=O)[C@@H](NC(=O)CC1CCCCC1)C(C)(C)C)C(=O)C(=O)NCCc1c[nH]c2cc(OC)ccc12 [Compound 69] | > 500 | 100 to 500
6 | CCC[C@H](NC(=O)[C@@H]1C[C@]2(CC(c3cccc(Cl)c3)=NO2)CN1C(=O)[C@@H](NC(=O)CC1CCCCC1)C(C)(C)C)C(=O)C(=O)NCc1ccc(-n2cccn2)cc1 [Compound 73] | > 500 | 100 to 500
7 | CCC[C@H](NC(=O)[C@@H]1C[C@]2(CC(c3cc(Cl)c4c(c3)CCC(C)(C)O4)=NO2)CN1C(=O)[C@@H](NC(=O)CC1CCCCC1)C(C)(C)C)C(=O)C(=O)NC1CC1 [Compound 74] | 100 to 500 | < 100
8 | CCC[C@H](NC(=O)[C@@H]1C[C@]2(CC(c3cccc(Cl)c3)=NO2)CN1C(=O)[C@@H](NC(=O)CC1CCCCC1)C(C)(C)C)C(=O)C(=O)NCc1ccccc1 [Compound 77] | 100 to 500 | < 100
9 | CCC[C@H](NC(=O)[C@@H]1C[C@]2(CC(c3cccc(Cl)c3)=NO2)CN1C(=O)[C@@H](NC(=O)CC1CCCCC1)C(C)(C)C)C(=O)C(=O)N1CCC1 [Compound 79] | 100 to 500 | < 100
10 | CCC[C@H](NC(=O)[C@@H]1C[C@]2(CC(c3cccc(Cl)c3)=NO2)CN1C(=O)[C@@H](NC(=O)CC1CCCCC1)C(C)(C)C)C(=O)C(=O)Nc1cc(OC)ccc1OC [Compound 84] | > 500 | > 500
11 | CC(C)(C)[C@H](NC(=O)CC1CCOCC1)C(=O)N1C[C@@]2(CC(c3cccc(Cl)c3)=NO2)C[C@H]1C(=O)NC(CC1CCC1)C(=O)C(=O)NC1CC1 (stereo partly shown) [Compound 87] | 100 to 500 | 100 to 500
12 | CCC[C@H](NC(=O)[C@@H]1CC2(CC(c3cccc(Cl)c3)=NO2)CN1C(=O)[C@H](Cc1ccc(OC)cc1)NC(C)=O)C(=O)C(=O)NC1CC1 (stereo partly shown) [Compound 88] | > 500 | 100 to 500
13 | CCC[C@H](NC(=O)[C@@H]1C[C@]2(CC(c3cccc(Cl)c3)=NO2)CN1C(=O)[C@@H](NC(=O)CC1CCCCC1)C(C)(C)C)C(=O)C(=O)NCC1(c2ccc(OC)cc2)CCOCC1 [Compound 91] | > 500 | > 500
14 | CCC[C@H](NC(=O)[C@@H]1C[C@]2(CC(c3cccc(Cl)c3)=NO2)CN1C(=O)[C@@H](NC(=O)C1CCCCC1)C(C)(C)C)C(=O)C(=O)NC1CC1 [Compound 93] | 100 to 500 | < 100
15 | CCC[C@H](NC(=O)[C@@H]1C[C@]2(CC(c3cccc(Cl)c3)=NO2)CN1C(=O)[C@@H](NC(=O)CC1CCCCC1)C(C)(C)C)C(=O)C(=O)Nc1ccc(C)c(C#N)c1 [Compound 96] | > 500 | 100 to 500
16 | CCC[C@H](NC(=O)[C@@H]1C[C@]2(CC(c3cccc(Cl)c3)=NO2)CN1C(=O)[C@H](CC(C)C)NC(C)=O)C(=O)C(=O)NC1CC1 [Compound 98] | > 500 | 100 to 500
17 | CCC[C@H](NC(=O)[C@@H]1C[C@]2(CC(c3cccc(Cl)c3)=NO2)CN1C(=O)[C@@H](NC(=O)CC1CCCCC1)C(C)(C)C)C(=O)C(=O)NC1CCCCC1 [Compound 99] | > 500 | > 500
